# Test results taken from patent publication US20240400547A1, “2,6-PIPERIDINEDIONE COMPOUND AND APPLICATION THEREOF” (MEDSHINE DISCOVERY INC., priority 2021, published 2024).
# Structures can show the parent of a compound that is named as a salt.
# Columns and labels:
# [1] = Pharmacokinetic evaluation in beagles; assay type: in vivo, beagle; conditions: beagles (fed)
# From the text: In this study, male beagles were selected as test animals, and LC/MS/MS method was used to quantify plasma concentrations of the test compound intravenously injected or intragastrically administered to beagles at different time points, so as to evaluate the pharmacokinetic profile of the compounds of the present disclosure in beagles.
# Beagle (male, 7 to 10 kg, Beijing Marshall Biotechnology Co., Ltd.).
# • A clear solution of the test compound was slowly injected into beagle via the peripheral vein (fed) (vehicle: […]/10% solutol/85% H2O or 5% DMSO/10% solutol/85% H2O), or intragastrically administered to beagles (fed). For intravenous injection, 0.5 mL blood was collected via the saphenous vein puncture at 0.083, 0.25, 0.5, 1, 2, 4, 6, 8, and 24 h after administration, and placed in a EDTA-2K anticoagulant tube. The mixture was centrifuged at 3200 g for 10 minutes at 2 to 8° C., and the supernatant was separated. For oral administration, 0.5 mL blood was collected via the saphenous vein puncture at 0.083, 0.25, 0.5, 1, 2, 4, 6, 8, and 24 h after administration, and placed in a EDTA-2K anticoagulant tube. The mixture was centrifuged at 3200 g for 10 minutes at 2 to 8° C., and the supernatant was separated. Plasma drug concentrations were determined by LC-MS/MS method, and relevant pharmacokinetic parameters were calculated using Phoenix WinNonlin 6.3 pharmacokinetic software with non-compartmental model linear-log trapezoidal method.
# [2] = tested on: human lymphoma SU-DHL-2 cells; assay: In vivo efficacy in CB17 SCID mouse model with subcutaneous xenograft tumors of human lymphoma SU-DHL-2 cells; design: species or system CB17 SCID mice; conditions: for Tumor volume (Day 0): Day 0 (grouping, baseline); for Tumor volume (Day 0) / Tumor volume (Day 21): average, SEM in next grid line
# Procedure: The study evaluates the antitumor effect of the test compounds using a CB17 SCID mouse model with subcutaneous xenograft tumors of SU-DHL-2 human lymphoma cells.
# • 1. Experimental animals: CB17 SCID mice, female, 6 to 8 weeks old, weighing 18 to 22 g. Beijing Vital River Laboratory Animal Technology Co., Ltd. • 2. Cell line: human lymphoma SU-DHL-2 cells (Cat. No ATCC-CRL-2956).
# Cell culture: Human lymphoma SU-DHL-2 cells (ATCC-CRL-2956) were cultured in suspension in vitro. The culture conditions were RPMI 1640 medium with […] fetal bovine serum, 100 U/mL penicillin and 100 μg/mL streptomycin, and cultured in a 37° C., […] incubator. Routine passaging was performed twice a week. When the cell saturation reached […] and the quantity met the requirements, the cells were collected, counted, and seeded.
# Tumor cell seeding and grouping: 0.2 mL (10×10^6 cells) of SU-DHL-2 cells, in a PBS:Matrigel=1:1 mixture, were subcutaneously inoculated into the right dorsal flank of each mouse. When the average tumor volume reached approximately 139 mm^3, the animals were divided into groups for drug administration. The day of grouping was recorded as Day 0, and dosing began according to the body weight of the animals.
# The pharmacological experiment consisted of a dosing cycle of seven days, with medication administered once daily at a 24-hour interval. The test compounds were given intragastrically, with a total of three dosing cycles. During the experiment, the body weight and tumor size of the animals were measured twice a week, and clinical symptoms were observed and recorded daily.
# The dosing for the test compounds were 10 mg/kg, 30 mg/kg, and 100 mg/kg, with a solvent composition of 10% DMSO/10% Solutol/80% water. The formula for calculating tumor volume (TV) was: 1/2×a×b^2, where a and b were the measured length and width of the tumor, respectively. The formula for calculating the Tumor Growth Inhibition (TGI) rate was: TGI (%)=[(1−(average tumor volume at the end of administration in a treatment group average tumor volume at the beginning of administration in this treatment group))/(average tumor volume at the end of treatment in the vehicle control group−average tumor volume at the beginning of treatment in the vehicle control group)]×100%. Relative Tumor Proliferation rate T/C (%): the calculation formula was as follows: T/C %=TRTV/CRTV×100% (TRTV: average RTV of the treatment group; CRTV: average RTV of the negative control group). According to the results of tumor measurement, the relative tumor volume (RTV) was calculated, and the calculation formula was RTV=Vt/V0, where V0 was the tumor volume measured at the time of group administration (i.e. Day 0), VT was the tumor volume at a certain measurement, and TRTV and CRTV were taken from the same day's data.
# Statistical analysis is based on the data of RTV at the end of the experiment and analyzed by SPSS software. For comparisons between two groups, a T test was used. For comparisons among three or more groups, one-way ANOVA was utilized. If the variance was homogenous (no significant difference in F value), Tukey's method was applied for analysis. If the variance was heterogeneous (significant difference in F value), the Games-Howell method was used for testing. A p-value of <0.05 was considered statistically significant.
# [3] = intragastric administration 5 mg/kg
# [4] = 10 mg/kg intragastric once daily
# [5] = 30 mg/kg intragastric once daily
# [6] = 100 mg/kg intragastric once daily
smiles,measurement,setting,value
O=C1CCC(c2noc3ccc4c(NC(=O)CN5CCN(C[C@H]6CC[C@H](n7cc(NC(=O)c8coc(-c9ccnc(NCC%10CC%10)c9)n8)c(C(F)F)n7)CC6)CC5)cccc4c23)C(=O)N1 (some centres unmarked) [Hydrochloride of WX014],Area under drug-time curve (0-inf),[1]; [3],3.20 µM·h
same,Peak concentration,[1]; [3],0.41 µM
same,Time to peak concentration,[1]; [3],4.00 h
same,Area under drug-time curve (0-inf),[1]; intravenous injection 0.5 mg/kg,0.44 µM·h
same,Vd,"[1]; male, beagle, dog, plasma, intravenous injection 0.5 mg/kg, read-out: Apparent volume of distribution",5.83 L/kg
same,Tumor volume (Day 0),[2]; [4],139 mm^3
same,T/C (%) (Day 21),[2]; [4],42.33%
same,TGI (%) (Day 21),[2]; [4],62.13%
same,Tumor volume (Day 21),[2]; [4],800 mm^3
same,Tumor volume (Day 0),[2]; [5],139 mm^3
same,T/C (%) (Day 21),[2]; [5],42.26%
same,TGI (%) (Day 21),[2]; [5],61.41%
same,Tumor volume (Day 21),[2]; [5],813 mm^3
same,Tumor volume (Day 0),[2]; [6],139 mm^3
same,T/C (%) (Day 21),[2]; [6],33.23%
same,TGI (%) (Day 21),[2]; [6],72.07%
same,Tumor volume (Day 21),[2]; [6],626 mm^3
